Laboratory results published in US12454529B2, “Piperazine cyclic ureas” (SIRONAX LTD., priority 2020, dated 2025).

System: HT-29 cells
Experiment: HT-29 cell necrosis/necroptosis inhibition (TNF-α + SMAC mimetic + zVAD-FMK; CellTiter-Glo cell viability)
Assay type: cell-based
Details: Homo sapiens, HT-29, 20 h, read-out: EC50 (Cell activity; Necrosis/Necroptosis Inhibitory Activity, Compounds 1-142)
Method in brief: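 Necroptosis was driven by TNF-α 10 ng/ml plus SMAC mimetic 6 μM and zVAD-FMK 10 μM in serum-free medium, with compounds as a 10-point threefold titration. After 20 h at 37 °C, ATP-based luminescence was read; EC50 values are geometric means of duplicate curves.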

Row | SMILES | EC50 [µM]
1 | CCOC(=O)c1n[nH]c(C)c1-c1nc(N2CCN(C(=O)N3N=CC[C@H]3c3cc(F)cc(C#N)c3)CC2)ncc1F [Compound 73, ethyl (S)-4-(2-(4-(5-(3-cyano-5-fluorophenyl)-4,5-dihydro-1H-pyrazole-1-carbonyl)piperazin-1-yl)-5-fluoropyrimidin-4-yl)-5-methyl-1H-pyrazole-3-carboxylat] | 0.0001 to 0.1

Same assay, conditions: Homo sapiens; HT-29 cells, TNF-α 10 ng/ml + SMAC mimetic 6 μM + zVAD-FMK 10 μM, 20 hours; geometric mean, 10 points in duplicate; read-out: EC50 (Cell activity; Necrosis/Necroptosis Inhibitory Activity, Compounds 1-142)

Row | SMILES | EC50 [µM]
2 | N#Cc1cc(F)cc([C@@H]2CC=NN2C(=O)N2CCN(c3ncc(F)c(-c4cc(O)nc(O)n4)n3)CC2)c1 [Compound 50, (S)-3-fluoro-5-(1-(4-(5-fluoro-2′,6′-dihydroxy-[4,4′-bipyrimidin]-2-yl)piperazine-1-carbonyl)-4,5-dihydro-1H-pyrazol-5-yl)benzonitrile] | 0.0001 to 0.1
3 | Cn1ncnc1-c1nc(N2CCN(C(=O)N3N=CC[C@H]3c3cc(F)cc(C#N)c3)CC2)ncc1F [Compound 66, (S)-3-fluoro-5-(1-(4-(5-fluoro-4-(1-methyl-1H-1,2,4-triazol-5-yl)pyrimidin-2-yl)piperazine-1-carbonyl)-4,5-dihydro-1H-pyrazol-5-yl)benzonitrile] | 0.0001 to 0.1
4 | N#Cc1cccc([C@@H]2CC=NN2C(=O)N2CCN(c3nccc(-c4cc[nH]n4)n3)CC2)c1 [Compound 37, (S)-3-(1-(4-(4-(1H-pyrazol-3-yl)pyrimidin-2-yl)piperazine-1-carbonyl)-4,5-dihydro-1H-pyrazol-5-yl)benzonitrile] | 0.0001 to 0.1
5 | N#Cc1cc(F)cc([C@@H]2CC=NN2C(=O)N2CCN(c3ncc(F)c(-c4ccc(O)nc4)n3)CC2)c1 [Compound 48, (S)-3-fluoro-5-(1-(4-(5-fluoro-4-(6-hydroxypyridin-3-yl)pyrimidin-2-yl)piperazine-1-carbonyl)-4,5-dihydro-1H-pyrazol-5-yl)benzonitrile] | 0.0001 to 0.1
6 | N#Cc1cc(F)cc([C@@H]2CC=NN2C(=O)N2CCN(c3nccc(-n4cc(C(N)=O)cn4)n3)CC2)c1 [Compound 102, (S)-1-(2-(4-(5-(3-cyano-5-fluorophenyl)-4,5-dihydro-1H-pyrazole-1-carbonyl)piperazin-1-yl)pyrimidin-4-yl)-1H-pyrazole-4-carboxamide] | 0.0001 to 0.1
7 | Cc1nn(-c2nc(N3CCN(C(=O)N4N=CC[C@H]4c4cc(F)cc(C#N)c4)CC3)ncc2F)c(C)c1N [Compound 131, (S)-3-(1-(4-(4-(4-amino-3,5-dimethyl-1H-pyrazol-1-yl)-5-fluoropyrimidin-2-yl)piperazine-1-carbonyl)-4,5-dihydro-1H-pyrazol-5-yl)-5-fluorobenzonitrile] | 0.0001 to 0.1
8 | Cc1c(-c2nc(N3CCN(C(=O)N4N=CC[C@H]4c4cc(F)cc(C#N)c4)CC3)ncc2F)nnn1CC(N)=O [Compound 79, (S)-2-(4-(2-(4-(5-(3-cyano-5-fluorophenyl)-4,5-dihydro-1H-pyrazole-1-carbonyl)piperazin-1-yl)-5-fluoropyrimidin-4-yl)-5-methyl-1H-1,2,3-triazol-1-yl)acetamide] | 0.0001 to 0.1
9 | CCOC(=O)c1nc(C)n(-c2nc(N3CCN(C(=O)N4N=CC[C@H]4c4cc(F)cc(C#N)c4)CC3)ncc2F)n1 [Compound 129, ethyl (S)-1-(2-(4-(5-(3-cyano-5-fluorophenyl)-4,5-dihydro-1H-pyrazole-1-carbonyl)piperazin-1-yl)-5-fluoropyrimidin-4-yl)-5-methyl-1H-1,2,4-triazole-3-carboxylate] | 0.0001 to 0.1
10 | Cc1nn(CCC2CCOCC2)c(C)c1-c1nc(N2CCN(C(=O)N3N=CC[C@H]3c3cc(F)cc(C#N)c3)CC2)ncc1F [Compound 138, (S)-3-(1-(4-(4-(3,5-dimethyl-1-(2-(tetrahydro-2H-pyran-4-yl)ethyl)-1H-pyrazol-4-yl)-5-fluoropyrimidin-2-yl)piperazine-1-carbonyl)-4,5-dihydro-1H-pyrazol-5-yl)-5-fluorobenzonitrile] | 0.0001 to 0.1
11 | Cn1ncnc1-c1nc(N2CCN(C(=O)N3N=CC[C@H]3c3cc(F)cc(F)c3)CC2)ncc1F [Compound 65, (S)-(5-(3,5-difluorophenyl)-4,5-dihydro-1H-pyrazol-1-yl)(4-(5-fluoro-4-(1-methyl-1H-1,2,4-triazol-5-yl)pyrimidin-2-yl)piperazin-1-yl)methanone] | 0.0001 to 0.1

Same assay, conditions: Homo sapiens; HT-29 cells, TNF-α 10 ng/ml + SMAC mimetic 6 μM + zVAD-FMK 10 μM, 20 hours; geometric mean, 10 points in duplicate; read-out: EC50 (Cell activity; Necrosis/Necroptosis Inhibitory Activity, Compounds 143-323)

Row | SMILES | EC50 [µM]
12 | Cc1nc(C)n(-c2nc(N3CCN(C(=O)N4N=CCC4c4csc(C)n4)CC3)ncc2F)n1 (centres unmarked) [Compound 213, (4-(4-(3,5-dimethyl-1H-1,2,4-triazol-1-yl)-5-fluoropyrimidin-2-yl)piperazin-1-yl)(5-(2-methylthiazol-4-yl)-4,5-dihydro-1H-pyrazol-1-yl)methanone] | 0.1 to 1
13 | CCn1cnn(-c2nc(N3CCN(C(=O)N4N=CC[C@H]4c4cc(F)cc(C#N)c4)CC3)ncc2F)c1=O [Compound 200, (S)-3-(1-(4-(4-(4-ethyl-5-oxo-4,5-dihydro-1H-1,2,4-triazol-1-yl)-5-fluoropyrimidin-2-yl)piperazine-1-carbonyl)-4,5-dihydro-1H-pyrazol-5-yl)-5-fluorobenzonitrile] | 0.0001 to 0.1
14 | Cc1nnc(-c2nc(N3CCN(C(=O)N4N=CC[C@H]4c4cncc(F)c4)CC3)ccc2F)s1 [Compound 173, (S)-(4-(5-fluoro-6-(5-methyl-1,3,4-thiadiazol-2-yl)pyridin-2-yl)piperazin-1-yl)(5-(5-fluoropyridin-3-yl)-4,5-dihydro-1H-pyrazol-1-yl)methanone] | 0.0001 to 0.1
15 | Cc1nn(-c2nc(N3CCN(C(=O)N4N=CC[C@H]4c4cc(F)cc(C#N)c4)CC3)ncc2F)c(C)c1[N+](=O)[O-] [Compound 191, (S)-3-(1-(4-(4-(3,5-dimethyl-4-nitro-1H-pyrazol-1-yl)-5-fluoropyrimidin-2-yl)piperazine-1-carbonyl)-4,5-dihydro-1H-pyrazol-5-yl)-5-fluorobenzonitrile] | 0.0001 to 0.1
16 | Cn1ncnc1-c1ccc(F)c(N2CCN(C(=O)N3N=CC[C@H]3c3cc(F)cc(F)c3)CC2)n1 [Compound 175, (S)-(5-(3,5-difluorophenyl)-4,5-dihydro-1H-pyrazol-1-yl)(4-(3-fluoro-6-(1-methyl-1H-1,2,4-triazol-5-yl)pyridin-2-yl)piperazin-1-yl)methanone] | 0.0001 to 0.1
17 | Cc1nc(C#N)nn1-c1nc(N2CCN(C(=O)N3N=CC[C@H]3c3cc(F)cc(F)c3)CC2)ncc1F [Compound 254, (S)-1-(2-(4-(5-(3,5-difluorophenyl)-4,5-dihydro-1H-pyrazole-1-carbonyl)piperazin-1-yl)-5-fluoropyrimidin-4-yl)-5-methyl-1H-1,2,4-triazole-3-carbonitrile] | 0.0001 to 0.1
18 | Cc1c(N)nn(C)c1-c1ccnc(N2CCN(C(=O)N3N=CC[C@H]3c3cc(F)cc(C#N)c3)CC2)n1 [Compound 154, (S)-3-(1-(4-(4-(3-amino-1,4-dimethyl-1H-pyrazol-5-yl)pyrimidin-2-yl)piperazine-1-carbonyl)-4,5-dihydro-1H-pyrazol-5-yl)-5-fluorobenzonitrile] | 0.0001 to 0.1
19 | Cc1cnn(C)c1-c1cc(N2CCN(C(=O)N3N=CCC3c3nccs3)CC2)c(F)cn1 (centres unmarked) [Compound 294, (4-(2-(1,4-dimethyl-1H-pyrazol-5-yl)-5-fluoropyridin-4-yl)piperazin-1-yl)(5-(thiazol-2-yl)-4,5-dihydro-1H-pyrazol-1-yl)methanone] | 0.1 to 1
20 | Cc1ncc(C2CC=NN2C(=O)N2CCN(c3nc(-c4c(C)cnn4C)ccc3F)CC2)s1 (centres unmarked) [Compound 270, (4-(6-(1,4-dimethyl-1H-pyrazol-5-yl)-3-fluoropyridin-2-yl)piperazin-1-yl)(5-(2-methylthiazol-5-yl)-4,5-dihydro-1H-pyrazol-1-yl)methanone] | 0.0001 to 0.1
